Source: PubChem BioAssay AID1920066 (Derbyshire Lab, Chemistry Department, Duke University, 2024)

Assays:
[1] = competitive binding to P. falciparum Hsp90 – cell lysate, FLECS, GFP-tagged PfHsp90, E. coli lysate, confirmation (AID 1920066); details: liver stage Plasmodium parasite inhibition
[2] = test system: Heat shock protein 90 (Plasmodium falciparum), GFP-tagged; test: as above; details: E. coli lysate PfHsp90-GFP ATP-resin elution, fluorescence; at 500 µM; stronger effect = higher value

SMILES: CCOC(=O)NCc1ccc(-n2c(-c3cc(C(C)C)c(O)cc3O)n[nH]c2=S)cc1
- EC50 [1]: 1.5 µM
- relative binding (F/Fo) [2]: 4.9

SMILES: CS(=O)(=O)c1cccc(C(=O)Nc2nc3ccccc3nc2N2CCCC2)c1
- EC50 [1]: > 30 µM
- relative binding (F/Fo) [2]: 2.59

SMILES: CC[C@@H](C)Nc1cc(C(=O)NC2CC3CCC(C2)N3c2ccc(C(=O)C3CC3)cn2)c(C)cc1C(N)=O (some centres undefined)
- EC50 [1]: 0.24 µM
- relative binding (F/Fo) [2]: 3.44

SMILES: NC(=O)c1ccc(NC(=O)CN2CSCC2=O)cc1
- EC50 [1]: > 30 µM
- relative binding (F/Fo) [2]: 2.54

SMILES: Cn1cc(S(=O)(=O)N2CCN(C(=O)c3ccc(F)cc3)CC2)cc1C(N)=O
- EC50 [1]: > 10 µM
- relative binding (F/Fo) [2]: 2.06

SMILES: CN(CC(=O)N1CCCC1)c1ncnc2cc(Cl)ccc12
- EC50 [1]: > 30 µM
- relative binding (F/Fo) [2]: 2.06

SMILES: Cc1ccc(C(C)C)c(OCC(=O)Nc2cccc3cnccc23)c1
- EC50 [1]: > 30 µM
- relative binding (F/Fo) [2]: 2.15
